In patent US8268854B2, “Aza-beta-carbolines and methods of using same” (The UWM Research Foundation, Inc., priority 2008, dated 2012):
Counter-ions that a name gives are not always drawn.

Molecular target: T1, Dopamine receptor D2 (Homo sapiens, UniProt P14416)
T1 construct: expressed in transfected cells
Assay: PDSP secondary radioligand binding assay
Experimental: Primary and secondary radioligand binding assays are performed. In general, the primary assay is run at very high ligand (compound) concentration as a broad screen to determine whether a compound binds to a particular receptor. If greater than 50% inhibition at 10 μM (high concentration of compound) at a particular receptor is determined, a secondary assay is performed on that receptor. Data from the secondary assay is the binding affinity (Ki value).
This assay is used to test binding to receptors such as the serotonin receptors: 5-HT1A, 5-HT1B, 5-HT1D, 5-HT1E, 5-HT2A, 5-HT2B, 5-HT2C, 5-HT3, 5-HT5A, 5-HT6 and 5-HT7. The protocol is adapted from Roth et al. J. Pharmacol. Exp. Ther. 1986, 238, 480-485 and Roth et al. J. Pharmacol. Exp. Ther. 1994, 268, 1403-1410. The assay buffer is Standard Binding Buffer (50 mM Tris-HCl, 10 mM MgCl2, 0.1 mM EDTA, pH 7.4). The membrane fraction source is transiently or stably transfected cell lines (e.g., HEK293, COS, CHO, NIH3T3).
A solution of the compound to be tested is prepared as a 1 mg/mL stock in Standard Binding Buffer or DMSO according to its solubility. A similar stock of a reference compound (positive control) is also prepared.
Radioligand (see Table 41) is diluted to five times the assay concentration (see Table 21) in Standard Binding Buffer. […]
The 250 μL reactions are incubated at room temperature and shielded from light (to prevent photolysis of light-sensitive ligands) for 1.5 hours, then harvested by rapid filtration onto Whatman GF/B glass fiber filters pre-soaked with 0.3% polyethyleneimine using a 96-well Brandel harvester. […] The tubes are capped, labeled, and counted by liquid scintillation counting. For higher throughput assays, bound radioactivity is harvested onto 0.3% polyethyleneimine-treated, 96-well filter mats using a 96-well Filtermate harvester. The filter mats are dried, then scintillant is melted onto the filters, and the radioactivity retained on the filters is counted in a Microbeta scintillation counter. […]

T1 sequence (P14416 whole entry): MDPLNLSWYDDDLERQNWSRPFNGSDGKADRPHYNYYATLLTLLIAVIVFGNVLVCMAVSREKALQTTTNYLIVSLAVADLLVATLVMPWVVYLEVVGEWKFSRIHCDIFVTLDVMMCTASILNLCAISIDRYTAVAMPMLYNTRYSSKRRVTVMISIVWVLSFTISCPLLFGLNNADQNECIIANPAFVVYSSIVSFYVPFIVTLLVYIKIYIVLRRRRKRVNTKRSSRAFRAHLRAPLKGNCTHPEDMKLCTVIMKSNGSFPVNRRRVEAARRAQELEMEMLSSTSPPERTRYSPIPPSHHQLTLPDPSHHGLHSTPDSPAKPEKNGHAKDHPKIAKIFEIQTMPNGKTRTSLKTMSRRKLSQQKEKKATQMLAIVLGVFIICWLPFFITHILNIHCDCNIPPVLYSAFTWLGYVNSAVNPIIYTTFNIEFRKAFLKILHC

SMILES	Ki [µM]
CCCOc1cc2c(cn1)[nH]c1ccncc12 [Compound 2, 8-Propoxypyridino[4′,3′-5,4]pyrrolo[3,2-c]pyridine hydrochloride]	> 10
CCCOc1cc2c(cn1)[nH]c1cnccc12 [Compound 4, 3-Propoxy pyridino[4′,3′-4,5]pyrrolo[2,3-c]pyridine hydrochloride]	> 10
